Reference: patent US20220251036A1, “DIFLUOROHALOALLYLAMINE SULFONE DERIVATIVE INHIBITORS OF LYSYL OXIDASES, METHODS OF PREPARATION, AND USES THEREOF” (PHARMAXIS LTD., priority 2019, published 2022)
Structures can show the parent of a compound that is named as a salt.

Key:
[1] = target: T1, Human recombinant LOXL2 (Homo sapiens, UniProt Q9Y4K0); assay: LOXL2 inhibition, Amplex Red oxidation assay; assay type: biochemical; conditions: incubation with enzyme 30 min at 37° C; read-out: Human recombinant LOXL2 Activity IC50
T1 sequence (Q9Y4K0 26-774): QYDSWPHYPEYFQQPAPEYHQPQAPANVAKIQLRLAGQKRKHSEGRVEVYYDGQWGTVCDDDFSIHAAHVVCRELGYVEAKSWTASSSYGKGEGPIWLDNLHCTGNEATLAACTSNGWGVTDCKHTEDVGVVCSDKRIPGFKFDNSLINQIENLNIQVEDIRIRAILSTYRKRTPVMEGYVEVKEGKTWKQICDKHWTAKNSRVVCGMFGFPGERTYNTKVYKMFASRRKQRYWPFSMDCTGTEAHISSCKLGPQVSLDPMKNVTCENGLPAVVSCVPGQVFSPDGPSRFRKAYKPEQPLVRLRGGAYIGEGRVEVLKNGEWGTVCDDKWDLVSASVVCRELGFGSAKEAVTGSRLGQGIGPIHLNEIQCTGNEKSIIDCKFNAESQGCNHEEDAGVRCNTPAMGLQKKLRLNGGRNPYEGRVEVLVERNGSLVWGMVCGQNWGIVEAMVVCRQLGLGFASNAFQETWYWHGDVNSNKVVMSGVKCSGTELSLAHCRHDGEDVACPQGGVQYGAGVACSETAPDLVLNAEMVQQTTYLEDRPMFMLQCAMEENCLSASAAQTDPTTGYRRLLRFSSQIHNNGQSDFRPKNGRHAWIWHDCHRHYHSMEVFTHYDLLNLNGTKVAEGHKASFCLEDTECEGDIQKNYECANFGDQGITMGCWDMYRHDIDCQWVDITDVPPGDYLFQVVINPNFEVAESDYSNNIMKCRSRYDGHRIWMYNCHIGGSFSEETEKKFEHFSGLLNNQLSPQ
Method: (§1) LOX and LOXL protein family members can be acquired as recombinant active proteins from commercial sources, or extracted from animal tissues like bovine aorta, tendons, pig skin; or prepared from cell cultures. […] The assay was developed using either 384 or 96 well format. Briefly, in a standard black, clear bottom 384 well plate assay 25 μL of a dilution of any of the isoenzymes and orthologues in 1.2 M urea, 50 mM sodium borate buffer (pH 8.2) were added into each well in the presence of 1 μM mofegiline and 0.5 mM pargyline (to inhibit SSAO and MAO-B and MAO-A, respectively; not necessary if the enzyme is from a recombinant or purified form). Test compounds were dissolved in DMSO and tested in a Concentration Response Curve (CRC) with 11 data points, typically in the micromolar or nanomolar range after incubation with the enzyme for 30 min at 37° C. 25 μL of a reaction mixture containing twice the KM concentration of putrescine (Sigma Aldrich, e.g. 20 mM for LOX and LOXL1 or 10 mM for LOXL2 and 4 mM for LOXL3 and LOXL4), 120 μM Amplex Red (Sigma Aldrich) and 1.5 U/mL horseradish peroxidase (Sigma Aldrich) prepared in 1.2 M urea, 50 mM sodium borate buffer (pH 8.2) were then added to the corresponding wells. The above volumes were doubled in the case of 96 wells plate. The fluorescence (RFU) was read every 2.5 min for 30 min at […] 37° C., excitation 565 nm and emission 590 (Optima; BMG labtech). The slope of the kinetics for each well was calculated using MARS data analysis software (BMG labtech) and this value was used to deduce the IC50 value (Dotmatics). The ability of the inventive compounds to inhibit the amine oxidase activity of LOX and other family members is shown in Table 4.

[2] = target: T2, Bovine LOX (Bos taurus, UniProt P33072); assay: LOX inhibition, Amplex Red oxidation assay; assay type: biochemical; conditions: for IC50: incubation with enzyme 30 min at 37° C, read-out: Bovine LOX Activity IC50
T2 sequence (P33072 170-418): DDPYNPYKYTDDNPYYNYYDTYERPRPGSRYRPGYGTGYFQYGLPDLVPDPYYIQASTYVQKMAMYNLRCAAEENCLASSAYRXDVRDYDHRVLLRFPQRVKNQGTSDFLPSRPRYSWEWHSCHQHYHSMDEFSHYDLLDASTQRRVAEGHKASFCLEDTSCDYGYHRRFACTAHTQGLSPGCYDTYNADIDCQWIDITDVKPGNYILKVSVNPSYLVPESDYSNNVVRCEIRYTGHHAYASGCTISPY
Method: as §1

| SMILES | IC50 [1] | IC50 [2] | inhibitory activity (in words) ([2]; LOX / LOXL preparations, compared with Compound 1) |
| --- | --- | --- | --- |
| CS(=O)(=O)c1cccc(S(=O)(=O)C(F)(F)/C(F)=C/CN)c1 [Compound 3, (Z)-3,4,4-trifluoro-4-((3-(methylsulfonyl)phenyl)sulfonyl)but-2-en-1-amine] | 0.7 µM | 11.1 µM | – |
| NC/C=C(\F)C(F)(F)S(=O)(=O)c1ccccc1O [Compound 11, (Z)-2-((4-amino-1,1,2-trifluorobut-2-en-1-yl)sulfonyl)phenol] | 1.7 µM | > 30 µM | – |
| Cc1occc1S(=O)(=O)C(F)(F)/C(F)=C/CN [Compound 15, (Z)-3,4,4-trifluoro-4-((2-methylfuran-3-yl)sulfonyl)but-2-en-1-amine] | 0.7 µM | 5.9 µM | – |
| CS(=O)(=O)c1cccc(Oc2cccc(S(=O)(=O)C(F)(F)/C(F)=C/CN)c2)c1 [Compound 20, (Z)-3,4,4-trifluoro-4-((3-(3-(methylsulfonyl)phenoxy)phenyl)sulfonyl)but-2-en-1-amine] | – | 4.4 µM | – |

Now from value to compound, other results behind:

| IC50 [1] | IC50 [2] | SMILES | inhibitory activity (in words) ([2]; LOX / LOXL preparations, compared with Compound 1) |
| --- | --- | --- | --- |
| 2.1 µM | 23.1 µM | NC/C=C(/F)C(F)(F)S(=O)(=O)c1ccccc1 [Compound 1(E)] | significantly reduced inhibitory activity |
| 2 µM | 22.8 µM | NC/C=C(\F)C(F)(F)S(=O)(=O)c1ccccc1N1CCS(=O)(=O)CC1 [Compound 7, (Z)-4-(2-((4-amino-1,1,2--trifluorobut-2-en-1-yl)sulfonyl)phenyl)thiomorpholine 1,1-dioxide, hydrochloride] | – |
| 0.5 µM | 3.9 µM | Cc1cccc(S(=O)(=O)C(F)(F)/C(F)=C/CN)c1 [Compound 13, (Z)-3,4,4-trifluoro-4-(m-tolylsulfonyl)but-2-en-1-amine] | – |
| 0.7 µM | 3.6 µM | [2H]c1c([2H])c([2H])c(S(=O)(=O)C(F)(F)/C(F)=C/CN)c([2H])c1[2H] [Compound 18, (Z)-3,4,4-trifluoro-4-((phenyl-d5)sulfonyl)but-2-en-1-amine] | – |
